{
  "source": "patent US20140343000A1",
  "about": "(priority 2011, published 2014)",
  "note": "pEC50: −log10 of the molar value.",
  "data": [
    {"system": "recombinant NL4-3 virus (Renilla luciferase in nef, Gag P373S; NLRluc) in MT-2 cells", "assay": "whole plant or invertebrate", "type": "cell-based, HIV", "conditions": "Renilla, NL43, luciferase activity in cells infected for 4-5 days with NLRluc recombinants, serial dilutions of inhibitor; class symbols (key in Table 1); read-out: EC50", "description": "(§1) MT-2 cells and 293T cells were obtained from the NIH AIDS Research and Reference Reagent Program. MT-2 cells were propagated in RPMI 1640 media supplemented with 10% heat inactivated fetal bovine serum, […]. The 293T cells were propagated in DMEM media supplemented with 10% heat inactivated fetal bovine serum (FBS), 100 units/ml penicillin G and 100 μg/ml streptomycin. The proviral DNA clone of NL4-3 was obtained from the NIH AIDS Research and Reference Reagent Program. A recombinant NL4-3 virus, in which a section of the nef gene from NL4-3 was replaced with the Renilla luciferase gene, was used as a reference virus. In addition, residue Gag P373 was converted to P373S. Briefly, the recombinant virus was prepared by transfection of the altered proviral clone of NL4-3. Transfections were performed in 293T cells using LipofectAMINE PLUS from Invitrogen (Carlsbad, Calif.), according to manufacturer's instruction. The virus was titered in MT-2 cells using luciferase enzyme activity as a marker. Luciferase was quantitated using the Dual Luciferase kit from Promega (Madison, Wis.), with modifications to the manufacturer's protocol. The diluted Passive Lysis solution was pre-mixed with the re-suspended Luciferase Assay Reagent and the re-suspended Stop & Glo Substrate (2:1:1 ratio). Fifty (50) μL of the mixture was added to each aspirated well on assay plates and luciferase activity was measured immediately on a Wallac TriLux (Perkin-Elmer). Antiviral activities of inhibitors toward the recombinant virus were quantified by measuring luciferase activity in cells infected for 4-5 days with NLRluc recombinants in the presence serial dilutions of the inhibitor. Table 1 is the key for the data in Table 2.", "values": [
      {"smiles": "C=C(C)[C@@H]1CC[C@]2(NC(=O)NC3(CN(CC)CC)CC3)CC[C@]3(C)[C@H](CC[C@@H]4[C@@]5(C)CC=C(c6ccc(C(=O)O)cc6)C(C)(C)[C@@H]5CC[C@]43C)[C@@H]12", "note": "[Example 7, 4-((1R,3aS,5aR,5bR,7aR,11aS,11bR,13aR,13bR)-3a-(3-(1-((diethylamino)methyl)cyclopropyl)ureido)-5a,5b,8,8,11a-pentamethyl-1-(prop-1-en-2-yl)-2,3,3a,4,5,5a,5b,6,7,7a,8,11,11a,11b,12,13,13a,13b-octadecahydro-1H-cyclopenta[a]chrysen-9-yl)benzoic acid]", "pEC50": "> 7.00"},
      {"smiles": "C=C(C)[C@@H]1CC[C@]2(NC(=O)NC3(CN4CCCCC4)CC3)CC[C@]3(C)[C@H](CC[C@@H]4[C@@]5(C)CC=C(c6ccc(C(=O)O)cc6)C(C)(C)[C@@H]5CC[C@]43C)[C@@H]12", "note": "[Example 8, 4-((1R,3aS,5aR,5bR,7aR,11aS,11bR,13aR,13bR)-5a,5b,8,8,11a-pentamethyl-3a-(3-(1-(piperidin-1-ylmethyl)cyclopropyl)ureido)-1-(prop-1-en-2-yl)-2,3,3a,4,5,5a,5b,6,7,7a,8,11,11a,11b,12,13,13a,13b-octadecahydro-1H-cyclopenta[a]chrysen-9-yl)benzoic acid]", "pEC50": "> 7.00"},
      {"smiles": "C=C(C)[C@@H]1CC[C@]2(NC(=O)NCCCN(C)C)CC[C@]3(C)[C@H](CC[C@@H]4[C@@]5(C)CC=C(c6ccc(C(=O)O)cc6)C(C)(C)[C@@H]5CC[C@]43C)[C@@H]12", "note": "[Example 10, 4-((1R,3aS,5aR,5bR,7aR,11aS,11bR,13aR,13bR)-3a-(3-(3-(dimethylamino)propyl)ureido)-5a,5b,8,8,11a-pentamethyl-1-(prop-1-en-2-yl)-2,3,3a,4,5,5a,5b,6,7,7a,8,11,11a,11b,12,13,13a,13b-octadecahydro-1H-cyclopenta[a]chrysen-9-yl)benzoic acid]", "pEC50": "> 7.00"},
      {"smiles": "C=C(C)[C@@H]1CC[C@]2(NC(=O)NCCCN3CCOCC3)CC[C@]3(C)[C@H](CC[C@@H]4[C@@]5(C)CC=C(c6ccc(C(=O)O)cc6)C(C)(C)[C@@H]5CC[C@]43C)[C@@H]12", "note": "[Example 11, 4-((1R,3aS,5aR,5bR,7aR,11aS,11bR,13aR,13bR)-5a,5b,8,8,11a-pentamethyl-3a-(3-(3-morpholinopropyl)ureido)-1-(prop-1-en-2-yl)-2,3,3a,4,5,5a,5b,6,7,7a,8,11,11a,11b,12,13,13a,13b-octadecahydro-1H-cyclopenta[a]chrysen-9-yl)benzoic acid]", "pEC50": "> 7.00"},
      {"smiles": "C=C(C)[C@@H]1CC[C@]2(NC(=O)NCCCn3ccnc3C)CC[C@]3(C)[C@H](CC[C@@H]4[C@@]5(C)CC=C(c6ccc(C(=O)O)cc6)C(C)(C)[C@@H]5CC[C@]43C)[C@@H]12", "note": "[Example 12, 4-((1R,3aS,5aR,5bR,7aR,11aS,11bR,13aR,13bR)-5a,5b,8,8,11a-pentamethyl-3a-(3-(3-(2-methyl-1H-imidazol-1-yl)propyl)ureido)-1-(prop-1-en-2-yl)-2,3,3a,4,5,5a,5b,6,7,7a,8,11,11a,11b,12,13,13a,13b-octadecahydro-1H-cyclopenta[a]chrysen-9-yl)benzoic acid]", "pEC50": "> 7.00"},
      {"smiles": "C=C(C)[C@@H]1CC[C@]2(NC(=O)NCCc3c[nH]cn3)CC[C@]3(C)[C@H](CC[C@@H]4[C@@]5(C)CC=C(c6ccc(C(=O)O)cc6)C(C)(C)[C@@H]5CC[C@]43C)[C@@H]12", "note": "[Example 13, 4-((1R,3aS,5aR,5bR,7aR,11aS,11bR,13aR,13bR)-3a-(3-(2-(1H-imidazol-4-yl)ethyl)ureido)-5a,5b,8,8,11a-pentamethyl-1-(prop-1-en-2-yl)-2,3,3a,4,5,5a,5b,6,7,7a,8,11,11a,11b,12,13,13a,13b-octadecahydro-1H-cyclopenta[a]chrysen-9-yl)benzoic acid]", "pEC50": "> 7.00"},
      {"smiles": "C=C(C)[C@@H]1CC[C@]2(NC(=O)NCCCn3ccnc3)CC[C@]3(C)[C@H](CC[C@@H]4[C@@]5(C)CC=C(c6ccc(C(=O)O)cc6)C(C)(C)[C@@H]5CC[C@]43C)[C@@H]12", "note": "[Example 14, 4-((1R,3aS,5aR,5bR,7aR,11aS,11bR,13aR,13bR)-3a-(3-(3-(1H-imidazol-1-yl)propyl)ureido)-5a,5b,8,8,11a-pentamethyl-1-(prop-1-en-2-yl)-2,3,3a,4,5,5a,5b,6,7,7a,8,11,11a,11b,12,13,13a,13b-octadecahydro-1H-cyclopenta[a]chrysen-9-yl)benzoic acid]", "pEC50": "> 7.00"},
      {"smiles": "C=C(C)[C@@H]1CC[C@]2(NC(=O)N3CCCCC3)CC[C@]3(C)[C@H](CC[C@@H]4[C@@]5(C)CC=C(c6ccc(C(=O)O)cc6)C(C)(C)[C@@H]5CC[C@]43C)[C@@H]12", "note": "[Example 15, 4-((1R,3aS,5aR,5bR,7aR,11aS,11bR,13aR,13bR)-5a,5b,8,8,11a-pentamethyl-3a-(piperidine-1-carboxamido)-1-(prop-1-en-2-yl)-2,3,3a,4,5,5a,5b,6,7,7a,8,11,11a,11b,12,13,13a,13b-octadecahydro-1H-cyclopenta[a]chrysen-9-yl)benzoic acid]", "pEC50": "> 7.00"},
      {"smiles": "C=C(C)[C@@H]1CC[C@]2(NC(=O)NCC(=O)O)CC[C@]3(C)[C@H](CC[C@@H]4[C@@]5(C)CC=C(c6ccc(C(=O)O)cc6)C(C)(C)[C@@H]5CC[C@]43C)[C@@H]12", "note": "[Example 16, 4-((1R,3aS,5aR,5bR,7aR,11aS,11bR,13aR,13bR)-3a-(3-(carboxymethyl)ureido)-5a,5b,8,8,11a-pentamethyl-1-(prop-1-en-2-yl)-2,3,3a,4,5,5a,5b,6,7,7a,8,11,11a,11b,12,13,13a,13b-octadecahydro-1H-cyclopenta[a]chrysen-9-yl)benzoic acid]", "pEC50": "> 7.00"},
      {"smiles": "C=C(C)[C@@H]1CC[C@]2(NC(=O)N[C@@H](C)C(=O)O)CC[C@]3(C)[C@H](CC[C@@H]4[C@@]5(C)CC=C(c6ccc(C(=O)O)cc6)C(C)(C)[C@@H]5CC[C@]43C)[C@@H]12", "note": "[Example 17, 4-((1R,3aS,5aR,5bR,7aR,11aS,11bR,13aR,13bR)-3a-(3-((S)-1-carboxyethyl)ureido)-5a,5b,8,8,11a-pentamethyl-1-(prop-1-en-2-yl)-2,3,3a,4,5,5a,5b,6,7,7a,8,11,11a,11b,12,13,13a,13b-octadecahydro-1H-cyclopenta[a]chrysen-9-yl)benzoic acid]", "pEC50": "> 7.00"}
    ]},
    {"system": "recombinant NL4-3 virus (Renilla luciferase in nef, Gag P373S; NLRluc) in MT-2 cells", "assay": "whole plant or invertebrate", "type": "cell-based, HIV", "conditions": "Renilla, NL43, luciferase activity in cells infected for 4-5 days with NLRluc recombinants, serial dilutions of inhibitor; numeric values; read-out: EC50", "description": "as §1", "values": [
      {"smiles": "C=C(C)[C@@H]1CC[C@]2(NC(=O)N3CCN([C@@H]4COC[C@H]4N(C)C)CC3)CC[C@]3(C)[C@H](CC[C@@H]4[C@@]5(C)CC=C(c6ccc(C(=O)O)cc6)C(C)(C)[C@@H]5CC[C@]43C)[C@@H]12", "note": "[Example 9, 4-((1R,3aS,5aR,5bR,7aR,11aS,11bR,13aR,13bR)-3a-(4-((3S,4S)-4-(dimethylamino)tetrahydrofuran-3-yl)piperazine-1-carboxamido)-5a,5b,8,8,11a-pentamethyl-1-(prop-1-en-2-yl)-2,3,3a,4,5,5a,5b,6,7,7a,8,11,11a,11b,12,13,13a,13b-octadecahydro-1H-cyclopenta[a]chrysen-9-yl)benzoic acid]", "pEC50": 8.52}
    ]}
  ]
}
